Results on one compound are retold here after article PMC7044277 (Nature Communications, 2020).

Molecules are shown by their SMILES. “And” between values parts separate entries of the source, which are not always exact repeats. Equal entries are not always repeated.

Common to all, as to assay type: cell-based
In assay [1] the target is T1, 320 non-olfactory GPCRs (Homo sapiens, UniProt O00254).
T1 construct: expressed in transfected cells; host or cells: HTLA cells

Assay [2] deals with T2, 320 non-olfactory GPCRs (Homo sapiens, UniProt O00421).
T2 construct: expressed in transfected cells; host or cells: HTLA cells
T2 sequence (O00421 whole entry): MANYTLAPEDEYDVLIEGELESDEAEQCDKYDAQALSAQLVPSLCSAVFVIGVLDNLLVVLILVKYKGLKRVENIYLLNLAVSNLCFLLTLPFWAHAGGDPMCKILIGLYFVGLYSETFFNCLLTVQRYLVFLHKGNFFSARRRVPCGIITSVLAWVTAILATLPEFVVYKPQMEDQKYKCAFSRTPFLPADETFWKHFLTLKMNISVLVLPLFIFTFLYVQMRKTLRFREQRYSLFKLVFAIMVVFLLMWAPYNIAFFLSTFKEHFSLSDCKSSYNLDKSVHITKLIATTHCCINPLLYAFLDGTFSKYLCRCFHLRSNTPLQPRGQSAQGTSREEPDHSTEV

Assay [3] deals with 320 non-olfactory GPCRs (Homo sapiens, UniProt O95665). The settings on record: receptor NTSR2; replicate values, Fig_4g.
320 non-olfactory GPCRs (Homo sapiens, UniProt O95665), sequence (O95665 whole entry): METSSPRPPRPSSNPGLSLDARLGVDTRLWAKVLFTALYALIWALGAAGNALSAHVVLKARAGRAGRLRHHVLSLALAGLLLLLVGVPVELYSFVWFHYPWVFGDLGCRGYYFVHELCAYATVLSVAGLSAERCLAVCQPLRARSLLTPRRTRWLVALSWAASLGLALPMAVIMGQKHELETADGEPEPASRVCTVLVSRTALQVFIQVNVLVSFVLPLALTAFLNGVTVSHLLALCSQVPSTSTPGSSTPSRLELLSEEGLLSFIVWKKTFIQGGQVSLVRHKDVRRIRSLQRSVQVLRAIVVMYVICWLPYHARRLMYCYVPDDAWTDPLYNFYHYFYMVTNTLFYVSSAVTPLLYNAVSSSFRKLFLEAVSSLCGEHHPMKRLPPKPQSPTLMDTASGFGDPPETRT
For assay [4], the target named is T3, 320 non-olfactory GPCRs (Homo sapiens, UniProt P25100).
T3 construct: expressed in transfected cells; host or cells: HTLA cells
T3 sequence (P25100 whole entry): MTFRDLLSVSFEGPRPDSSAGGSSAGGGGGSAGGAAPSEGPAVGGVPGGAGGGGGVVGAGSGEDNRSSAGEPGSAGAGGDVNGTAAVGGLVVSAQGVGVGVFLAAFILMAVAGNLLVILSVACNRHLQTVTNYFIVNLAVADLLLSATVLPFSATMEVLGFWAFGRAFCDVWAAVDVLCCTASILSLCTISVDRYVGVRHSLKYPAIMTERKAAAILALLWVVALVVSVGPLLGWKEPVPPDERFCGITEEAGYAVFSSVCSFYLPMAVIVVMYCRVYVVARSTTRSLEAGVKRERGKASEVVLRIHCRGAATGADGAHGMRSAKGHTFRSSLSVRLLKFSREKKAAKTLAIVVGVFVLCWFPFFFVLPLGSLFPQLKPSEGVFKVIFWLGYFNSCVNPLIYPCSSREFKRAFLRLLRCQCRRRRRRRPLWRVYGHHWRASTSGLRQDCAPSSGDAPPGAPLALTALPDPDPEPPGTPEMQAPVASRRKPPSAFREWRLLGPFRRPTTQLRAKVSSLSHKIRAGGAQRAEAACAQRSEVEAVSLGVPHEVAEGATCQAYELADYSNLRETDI
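For Fold of Basal in this document: compound tested at 1 µM final concentration.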
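For GPCRome agonism screen response in this document: fold over basal response of each receptor without drug.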

T1 sequence (O00254 22-374): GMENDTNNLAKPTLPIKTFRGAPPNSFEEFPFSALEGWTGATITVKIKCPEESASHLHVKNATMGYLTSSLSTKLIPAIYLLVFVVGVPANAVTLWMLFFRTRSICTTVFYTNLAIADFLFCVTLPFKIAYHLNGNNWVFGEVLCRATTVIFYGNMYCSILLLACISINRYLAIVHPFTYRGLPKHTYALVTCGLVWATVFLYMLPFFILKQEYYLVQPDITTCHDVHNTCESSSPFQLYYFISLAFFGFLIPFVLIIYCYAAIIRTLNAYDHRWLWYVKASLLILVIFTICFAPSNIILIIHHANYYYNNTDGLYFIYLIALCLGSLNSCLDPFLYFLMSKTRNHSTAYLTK

Take `CCOc1cccc2cc(C(C)NCC3(O)CCCCC3)oc12` (stereo not shown) [O4LE6]: the “Fold of Basal” value was 0.8171 and 1.363 and 1.064 and 0.8535 at 320 non-olfactory GPCRs [1]; 1.0982 and 0.8519 and 0.828 and 1.211 on 320 non-olfactory GPCRs [2]; 1.061 and 0.9787 and 0.8777 and 0.6895 on 320 non-olfactory GPCRs [4]. For the same compound, the “GPCRome agonism screen response” value at 320 non-olfactory GPCRs [3] was 0.5368 and 0.5673 and 0.48 and 0.67.
